In a melting point compilation (Tetko et al.; mined from patent text by program, amines drawn as free bases though some values may be those of a salt):

Row | SMILES | melting point [°C]
1 | FC1(F)N=c2cc3c(cc2=N1)OC(Br)O3 | 160 to 164
2 | CCNc1cc(C(C)=NO)ccn1 | 155 to 156
3 | COc1ccc(S(=O)(=O)C2(C(=O)NO)CCN(CCCOc3ccccc3)CC2)cc1 | 101
4 | CCCCCCC1(c2cc(O)c([C@@H]3CC(=O)C4CC3C4(C)C)c(O)c2)OCCO1 (some centres not stated) | 185 to 186
5 | COc1ccccc1OCCCc1oc(-n2ccnc2C)nc1-c1ccc(Cl)cc1 | 84 to 85
6 | c1ccc2cc(OCCc3c[nH]cn3)ccc2c1 | 157 to 158
7 | O=C(O)c1cccc(-c2nc3cc(N4CCCC4=O)ccc3o2)c1 | 190 to 192
8 | CCC1C(C)=NN=C(c2ccccc2Cl)c2cc(OC)c(OC)cc21 (configuration not stated) | 129 to 131
9 | COC(=O)c1ccc(C=Cc2ccc(-c3cc4cc(Cl)ccc4o3)cc2)cc1 | 264 to 266
10 | CCOCCOC(=O)C1=C(C)NC(CO)=C(C(=O)OCC)C1c1cccc([N+](=O)[O-])c1 (configuration not stated) | 99 to 100
11 | NC(=O)c1sc2nc(N3CCC(NCC(O)c4cccnc4)CC3)cc(C(F)(F)F)c2c1N (configuration not stated) | 179 to 181
12 | CC[C@@]12CCCN1[C@@H](C(Cl)(Cl)Cl)OC2=O | 76 to 77
13 | O=c1c([N+](=O)[O-])c[nH]n1-c1c(Cl)cc(C(F)(F)F)cc1Cl | 100 to 108
14 | NS(=O)(=O)c1ccc(-n2nc(C(F)F)cc2-c2cnccn2)cc1 | 191 to 194
15 | O=C(O)c1cc2c(cc1C(=O)O)C(c1ccccc1)(C(F)(F)F)c1cc(C(=O)O)c(C(=O)O)cc1O2 | 276
16 | CCn1c(=O)c(=O)[nH]c2cc(-n3cccc3)c([N+](=O)[O-])cc21 | 248 to 250
17 | CC1=CC(=O)C(N)=CC1=N | 205
18 | O=C(O)CNC(=O)c1cc(Br)nc(Br)c1 | 151 to 152
19 | COc1ccc(-c2cc3c(OC)cc(OC)cc3nc2OC(C)C(=O)N(C)C)cc1 (configuration not stated) | 54 to 55
20 | COc1ccc2c(OCCN3CCOCC3)c(-c3ccccc3)c(=O)oc2c1 | 95 to 96
21 | CCCCc1nc(-c2ccco2)c2ncn(Cc3ccc(OC)cc3)c2n1 | 103
22 | CC(C)C(O)CN1N=C(c2ccc(Cl)cc2)CCC1=O (configuration not stated) | 90 to 92
23 | CCOC(=O)COc1ccc(N)cc1Cl | 59 to 62
24 | Cc1cc(NC(=O)CCc2cccs2)cc(C)c1O | 158 to 159
25 | CCOC(=O)N1C=CC(c2c(-c3ccc(F)cc3)nc3c(C)c(C)c(Cl)nn23)C=N1 (configuration not stated) | 159 to 161
26 | CCCCc1cc(OCc2ccc(-c3ccccc3C(=O)OC)cc2)c2ccccc2n1 | 105
27 | O=CN(O)C(CCO)CS(=O)(=O)c1ccccc1Oc1ccc(OC(F)(F)F)cc1 (configuration not stated) | 120 to 123
28 | Cc1cc(I)sc1COCP(=O)(OC(C)C)OC(C)C | 39 to 40
29 | Cc1c(-c2ccc(O)cc2)n(Cc2ccc(OCCN3CCCCCC3)cc2)c2ccc(O)cc12 | 168 to 171

The next lines start with the values.

Row | melting point [°C] | SMILES
30 | 250 to 252 | CN([C@H]1CC[C@H](Nc2nccc(-n3nnc4ccccc43)n2)CC1)S(C)(=O)=O
31 | 100 | C[C@H](NC(=O)OC(C)(C)C)C(=O)OCCCCNc1cccc2c1C(=O)c1ccccc1C2=O
32 | 58 to 59 | CCOC(=O)c1ccccc1C(=O)c1ccc2c(c1)C(C)(C)CCC2(C)C
33 | 82 to 84 | CCCCCCCCn1c2cc(I)ccc2c2ccc(I)cc21
34 | 230 | CCCc1nc2ccccc2c(C(=O)O)c1Oc1ccc(-c2ccccc2C(N)=O)cc1
35 | 119 to 122 | COc1ccc2c(c1)CC(C(=O)O)CC2 (configuration not stated)
36 | 295 to 296 | O=C(Nc1nnn[nH]1)c1ccc2nc3ccsc3c(=O)n2c1
37 | 249 to 251 | NS(=O)(=O)c1cc(C(=O)O)cc(NCc2ccccc2)c1Oc1ccc(OCc2ccccc2)cc1
38 | 166 to 167 | CC(C)CC(=O)Nc1cccc(-c2ccnc3c(-c4cccc(C#N)c4)cnn23)c1
39 | 104 | CCOc1ccc(N)c(S)c1
40 | 192 to 193 | CC(=O)c1ccc(SCc2cc3c(cc2O)CCCO3)cc1
41 | 121 to 122 | Cc1c(F)c(F)cc(C(=O)O)c1Cl
42 | 212 to 214 | Cc1ccc(C(=O)NC(C)C)c(Nc2ccc3cn[nH]c3c2)n1
43 | 72 | COc1ccc(-c2cc(F)cc3c2NC(CN)CO3)cc1 (configuration not stated)
44 | 178 to 180 | O=C(Nc1ccccn1)Nc1cccc2c1C1CC3(CCN1C2=O)OCCO3 (configuration not stated)
45 | 217 to 218 | CCCCNc1cc(C#N)cc(S(N)(=O)=O)c1Oc1ccccc1
46 | 170 to 171 | N#Cc1cc(NC(=O)c2cccn2-c2ccc(F)cc2)ccc1N1CCN(CCO)CC1
47 | 100 to 102 | Cc1ccc(C(Cl)=NOS(C)(=O)=O)cc1
48 | 207 to 209 | COc1cc(C)nc(NC(=O)NS(=O)(=O)c2cccc3cc[nH]c23)n1
49 | 122 to 124 | COC(=O)c1ccccc1SCOc1ccc(Cl)cc1Cl
50 | 80.1 to 81.5 | CCOC(=O)c1ccc(-c2ccc(OCCCCCCCCCCCCOC(C)=O)cc2)cc1
51 | 108 | CCCCCCCCCCCCCCCc1cc(=O)c2c(O)cc(O)cc2o1

Row | melting point [°C] | SMILES
52 | 195 to 200 | Cc1nc(N)nc(N)c1C=CC(C)(C)c1ccc(Cl)cc1
53 | 109 to 110 | COCCc1nc2c(N)nc3ccccc3c2n1CCCCCCCCNS(C)(=O)=O
54 | 74 to 76 | O=[N+]([O-])c1n[nH]c(-c2ccc(C(F)F)c(C(SC(c3cc(-c4nc([N+](=O)[O-])n[nH]4)ccc3C(F)F)C(F)(F)F)C(F)(F)F)c2)n1 (configuration not stated)
55 | 60 | CC(C)SC1=C(Cl)CSS1=O (configuration not stated)
56 | 187 to 189 | C#CCn1c(=O)oc2cc(Cl)c(-c3ccc(C(F)(F)F)n(C)c3=O)cc21
57 | 123 to 125 | O=C1CCCC(c2ccccc2)N1c1ccccc1 (configuration not stated)
58 | 158 to 160 | COc1cccc(C(CN2CCN(c3cccc(C(F)(F)F)c3)CC2)C2(O)CCCC2)c1 (configuration not stated)
59 | 100 to 101 | CCN1CCN(C2=Nc3cc(Cl)ccc3Oc3ccccc32)CC1
60 | 213 to 214 | CCn1c2ccccc2c2cc(NC(=O)OC)ncc21
61 | 200 | CCOc1cc(CCCN2CCc3cc(OC)c(OC)cc3C2)ccc1NC(=O)c1cccc2c(=O)c3cccc(F)c3[nH]c12
62 | 198 to 201 | COc1ccc(-c2csc(N)n2)cc1OC
63 | 110 to 111 | Nc1ccc(Cn2ncc3ccccc32)cc1
64 | 163 to 164 | Cc1oc(-c2ccc(F)cc2)nc1COc1cccc(Cn2oc(=O)[nH]c2=O)c1
65 | 47 to 49 | CCCCCCCCCCCCCCCCCCOCCSCCOC(=O)N(Cc1ccccn1)C(C)=O
66 | 114 to 115 | CCCCC(=O)OCc1cnc(C)c(O)c1
67 | 124 to 127 | CC(=O)c1cccc(-c2nc3sccn3c2-c2ccnc(N[C@@H]3CCCN(S(=O)(=O)c4ccc(Cl)cc4)C3)n2)c1
68 | > 280 | NNc1nc(Cl)nc2cc3c(cc12)OCO3
69 | 85 to 86 | CC(=O)SC(CC(=O)c1cccc(Cl)c1)C(=O)O (configuration not stated)
70 | 160 to 162 | CS(=O)(=O)c1ccc(-c2cc3c(cc2Cc2cc(F)cc(F)c2)OCCO3)cc1
71 | 87 to 89 | Cc1cn(C2(C(=O)N(C)C)CCC2)nc1-c1ccccc1
72 | 134 | OC(COc1ccc(F)cc1)CN1CCC(=C2c3ccc(F)cc3CCn3ncnc32)CC1 (configuration not stated)
